What is called inhibition is the change of the read-out against control, counted positive when it falls. Usually Ki stands for the dissociation constant of the complex between target and ligand, obtained from inhibition or displacement. In general, AUC(0-t) refers to the area under the concentration-time curve up to a stated or last time point. Low values mean low exposure, high ones high exposure. As usually defined, the Cmax is the peak of the concentration-time curve. The term Tmax denotes the time at which the peak concentration occurs. One may read the half-life as the time in which the quantity being followed falls by half. A higher half-life goes with slow loss. By bioavailability is commonly meant dose-corrected exposure relative to a reference, in per cent. A low value points to poor availability.

This is an account of results in patent US7964627B2, “Amino arylsulfonamide compounds and their use as 5-HT6 ligands” (Suven Life Sciences Limited, priority 2007, dated 2011).

In one data set the target is T1, Human 5-HT6 receptor (Homo sapiens, UniProt P50406).
T1 construct: expressed in transfected cells; host or cells: HEK293 cells
T1 sequence (P50406 whole entry): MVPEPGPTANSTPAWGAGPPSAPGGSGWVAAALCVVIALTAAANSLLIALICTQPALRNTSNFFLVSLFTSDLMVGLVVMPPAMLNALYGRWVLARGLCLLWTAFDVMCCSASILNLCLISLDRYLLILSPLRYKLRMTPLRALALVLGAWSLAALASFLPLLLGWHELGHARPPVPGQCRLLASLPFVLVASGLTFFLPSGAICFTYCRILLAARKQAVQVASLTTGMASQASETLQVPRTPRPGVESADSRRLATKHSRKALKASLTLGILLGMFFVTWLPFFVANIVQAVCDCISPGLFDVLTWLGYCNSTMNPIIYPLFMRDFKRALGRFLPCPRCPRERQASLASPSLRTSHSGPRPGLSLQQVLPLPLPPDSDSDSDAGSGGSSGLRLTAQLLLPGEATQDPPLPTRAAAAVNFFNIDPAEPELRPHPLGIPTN
The data set can be described thus: Binding assay for human 5-HT6 receptor ([3H]LSD radioligand). The following applies: human recombinant receptor in HEK293 cells; for inhibition at 0.1 µM: 100 nM test compound, [3H]LSD 1.5 nM, read-out: % Inhibition of specific binding at 100 nM; for Ki: [3H]LSD. On the procedure: Compounds can be tested according to the following the procedures.
Receptor source: Human recombinant expressed in HEK293 cells
Radioligand: [^3H]LSD (60-80 Ci/mmol)
Final ligand concentration—[1.5 nM]
Non-specific determinant: Methiothepin mesylate—[0.1 μM]
Reference compound: Methiothepin mesylate
Positive control: Methiothepin mesylate
Reactions were carried out in […] TRIS-HCl (pH 7.4) containing 10 μM MgCl2, 0.5 mM EDTA for 60 minutes at 37° C. The reaction was terminated by rapid vacuum filtration onto glass fiber filters. Radioactivity trapped onto the filters was determined and compared to control values in order to ascertain any interactions of test compound(s) with the cloned serotonin 5-HT6 binding site.
Percent Inhibition of Specific Binding at 100 nM Concentrations
Literature Reference: Monsma F. J. Jr., et al., Molecular Cloning and Expression of Novel Serotonin Receptor with High Affinity for Tricyclic Psychotropic Drugs. Mol. Pharmacol. (43): 320-327 (1993).

The nature of data set [1]: Rodent pharmacokinetic study. The class given is in vivo, Male wistar rats. Conditions: plasma, Wistar/Male rat, 10 mg/kg; for AUC(0-t) / Cmax / Tmax / half-life: vehicle water; for bioavailability: Oral vs Intravenous. The method, then:
Male wistar rats (230-280 grams) obtained from NIN (National Institute of Nutrition, Hyderabad, India) were used as an experimental animal.
Three to five animals were housed in each cage. Animals were kept fasted over night and maintained on a 12 hours light/dark cycle. Three rats were dosed NCE (10 mg/Kg) orally and intravenously on day 0 and day 2.
At each time point blood was collected by jugular vein. Plasma was stored frozen at −20° C. until analysis. The concentrations of the NCE compound in plasma were determined using LC-MS/MS method.
Schedule time points: Pre dose 0.25, 0.5, 1, 1.5, 2, 3, 4, 6, 8, 10, 12 and 24 hours after dosing (n=3). The NCE compounds were quantified in plasma by validated LC-MS/MS method using solid phase extraction technique. NCE compounds were quantified in the calibration range of 2-2000 ng/ml in plasma. Study samples were analyzed using calibration samples in the batch and quality control samples spread across the batch.
Pharmacokinetic parameters Cmax, Tmax, AUCt, AUCinf, half life, volume of distribution, clearance, mean residence time and thereby oral bioavailability were calculated by non-compartmental model using software WinNonlin version 5.1.

Data set [2] is described as follows: Rodent brain penetration study (steady state). The class given is in vivo, Male Wister rats. The following applies: Wistar, brain and plasma; Wister/Male rat, 10 mg/kg, Oral, vehicle water; read-out: Steady State Brain Penetration Cb/Cp.
The next data set deals with Male Wister rats. The data set can be described thus: Object recognition task model (NORT). Format: in vivo. Conditions: p.o.; for NORT Discriminative Index (DI), treatment: vehicle value in brackets in the cell; for NORT Inference: 10 and 30 mg/kg. The method, then:
The cognition-enhancing properties of compounds of this invention were estimated using a model of animal cognition: the object recognition task model. Male Wister rats (230-280 grams) obtained from N.I.N. (National Institute of Nutrition, Hyderabad, India) were used as experimental animals. Four animals were housed in each cage. Animals were kept on 20% food deprivation before one day and given water ad libitum throughout the experiment and maintained on a 12 hours light/dark cycle. Also the rats were habituated to individual arenas for 1 hour in the absence of any objects.
One group of 12 rats received vehicle (1 mL/Kg) orally and another set of animals received compound of the formula (I) either orally or i.p., before one hour of the familiar (T1) and choice trial (T2).
The experiment was carried out in a 50×50×50 cm open field made up of acrylic. In the familiarization phase, (T1), the rats were placed individually in the open field for 3 minutes, in which two identical objects (plastic bottles, 12.5 cm height×5.5 cm diameter) covered in yellow masking tape alone (a1 and a2) were positioned in two adjacent corners, 10 cm. from the walls. After 24 hours of the (T1) trial for long-term memory test, the same rats were placed in the same arena as they were placed in T1 trial. Choice phase (T2) rats were allowed to explore the open field for 3 minutes in presence of one familiar object (a3) and one novel object (b) (Amber color glass bottle, 12 cm high and 5 cm in diameter). Familiar objects presented similar textures, colors and sizes. During the T1 and T2 trial, explorations of each object (defined as sniffing, licking, chewing or having moving vibrissae whilst directing the nose towards the object at a distance of less than 1 cm) were recorded separately by stopwatch. Sitting on an object was not regarded as exploratory activity, however, it was rarely observed. T1 is the total time spent exploring the familiar objects (a1+a2). T2 is the total time spent exploring the familiar object and novel object (a3+b).
The object recognition test was performed as described by Ennaceur, A., Delacour, J., 1988, A new one-trial test for neurobiological studies of memory in rats-Behavioral data, Behav. Brain Res., 31, 47-59.

For a further data set, the system named is rats. The data set is described as follows: Water maze, scopolamine induced reversal. The class given is in vivo. Conditions: p.o. On the procedure:
The water maze apparatus consisted of a circular pool (1.8 m diameter, 0.6 m high) constructed in black Perspex (TSE systems, Germany) filled with water (24±2° C.) and positioned underneath a wide-angled video camera to track animal. The 10 cm^2 perspex platform, lying 1 cm below the water surface, was placed in the centre of one of the four imaginary quadrants, which remained constant for all rats. The black Perspex used in the construction of the maze and platform offered no intramaze cues to guide escape behavior. By contrast, the training room offered several strong extramaze visual cues to aid the formation of the spatial map necessary for escape learning. An automated tracking system, [Videomot 2 (5.51), TSE systems, Germany] was employed. This program analyzes video images acquired via a digital camera and an image acquisition board that determined path length, swim speed and the number of entries and duration of swim time spent in each quadrant of the water maze.

Another data set concerns 5-HT6 receptor. The following applies: literature; cited from earlier work.

Each structure is given as a SMILES string.

Regarding `COc1ccc2c(c1)c(C)cn2S(=O)(=O)c1ccc(OC)c(NCCN(C)C)c1` [Example 1, N′-[2-Methoxy-5-(5-methoxy-3-methylindole-1-sulfonyl)phenyl]-N,N-dimethyl ethane-1,2-diamine], the inhibition at 0.1 µM at Human 5-HT6 receptor was 82.9%.
Same read-out and setting: for `COc1ccc2c(c1)c(Cl)cn2S(=O)(=O)c1ccc(OC)c(NCCN(C)C)c1` [Example 2, N′-[5-(3-Chloro-5-methoxyindole-1-sulfonyl)-2-methoxyphenyl]-N,N-dimethyl ethane-1,2-diamine] the value was 84.9%.
For the molecule `COc1ccc(S(=O)(=O)n2cc(Cl)c3ccccc32)cc1NCCN(C)C` [Example 3, N′-[5-(3-Chloroindole-1-sulfonyl)-2-methoxyphenyl]-N,N-dimethyl ethane-1,2-diamine], at Human 5-HT6 receptor, the inhibition at 0.1 µM turned out to be 95.6% and the Ki stood at 3.02 nM.
On to `COc1ccc(S(=O)(=O)n2ccc3ccccc32)cc1NCCN(C)C` [Example 4, N′-[5-(Indole-1-sulfonyl)-2-methoxyphenyl]-N,N-dimethyl ethane-1,2-diamine], for which, in data set [1] (Intravenous), the AUC(0-t) is 1870 ± 338 ng·h/mL, the Cmax came out at 1590 ± 538 ng/mL, the Tmax is 4.8 min and the half-life is 176 ± 77.4 min. Besides, the bioavailability in data set [1] worked out at 5 ± 2%. Moreover, in data set [1] (Oral), the AUC(0-t) worked out at 88 ± 48 ng·h/mL, the Cmax was found to be 41 ± 19 ng/mL, the Tmax amounted to 34.8 ± 22.8 min and the half-life was 117 ± 43.8 min. Further, at Human 5-HT6 receptor, the inhibition at 0.1 µM was found to be 90.5% and the inhibition constant Ki was determined as 1.22 nM. Further, the Kp in data set [2] amounted to 20.2 ± 1.84.
Regarding `COc1ccc(S(=O)(=O)n2cc(C)c3ccccc32)cc1NCCN(C)C` [Example 5, N′-[2-Methoxy-5-(3-methylindole-1-sulfonyl)phenyl]-N,N-dimethyl ethane-1,2-diamine], in the data set on Male Wister rats (10 mg/kg), the “NORT Discriminative Index (DI), treatment” value (“NORT Discriminative Index” for short) is reported as 0.46 (0.52). The “NORT Discriminative Index” value in the data set with Male Wister rats (30 mg/kg) is given as 0.58 (0.56). Moreover, the “NORT Inference” value in the data set on Male Wister rats is “Active”. For the same molecule, in data set [1] (Intravenous), the AUC(0-t) came out at 2860 ± 442 ng·h/mL, the Cmax is 1960 ± 458 ng/mL, the Tmax was determined as 4.8 min and the half-life was 202 ± 17.4 min. Further, the bioavailability in data set [1] came out at 6 ± 1%. Besides, in data set [1] (Oral), the AUC(0-t) was 158 ± 20 ng·h/mL, the Cmax was found to be 36 ± 8 ng/mL, the Tmax amounted to 79.8 ± 34.8 min and the half-life was 136 ± 12 min. Also, at Human 5-HT6 receptor, the inhibition at 0.1 µM was 93% and the Ki came out at 1.52 nM. Moreover, the Kp in data set [2] was 13.5 ± 4.28. Further, the “Scopolamine Induced Reversal (active dose)” value in the data set on rats was “≧3 mg/kg, p.o”.
Consider `COc1ccc2c(c1)c(C)cn2S(=O)(=O)c1ccc(C)c(NCCN(C)C)c1` [Example 8, N′-[5-(5-Methoxy-3-methylindole-1-sulfonyl)-2-methylphenyl]-N,N-dimethyl ethane-1,2-diamine], for which the Ki at Human 5-HT6 receptor was determined as 17.3 nM.
For `COc1ccc2c(ccn2S(=O)(=O)c2ccc(C)c(NCCCN(C)C)c2)c1` [Example 9, N′-[5-(5-Methoxyindole-1-sulfonyl)-2-methylphenyl]-N,N-dimethyl propane-1,3-diamine], the Ki on Human 5-HT6 receptor is 41 nM.
As to `CCc1ccc(S(=O)(=O)n2ccc3cc(F)ccc32)cc1NCCN(C)C` [Example 13, N′-[2-Ethyl-5-(5-fluoroindole-1-sulfonyl)phenyl]-N,N-dimethyl ethane-1,2-diamine], at Human 5-HT6 receptor, the inhibition at 0.1 µM turned out to be 70.7%.
Same read-out and setting: the figure for `CCc1ccc(S(=O)(=O)n2cc(C)c3cc(OC)ccc32)cc1NCCN(C)C` [Example 15, N′-[2-Ethyl-5-(5-methoxy-3-methylindole-1-sulfonyl)phenyl]-N,N-dimethyl ethane-1,2-diamine] is 56.4%; for `Cc1ccc(S(=O)(=O)n2ccc3ccc(Cl)cc32)cc1NCCN(C)C` [Example 20, N′-[5-(6-Chloroindole-1-sulfonyl)-2-methylphenyl]-N,N-dimethyl ethane-1,2-diamine] it is 100%.
On the same count and under the same terms, for `CN(C)CCNc1cccc(S(=O)(=O)n2ccc3ccc(Cl)cc32)c1` [Example 23, N′-[3-(6-Chloroindole-1-sulfonyl)phenyl]-N,N-dimethyl ethane-1,2-diamine] the value was 96%; for `CCc1ccc(S(=O)(=O)n2ccc3cc(OC)ccc32)cc1NCCN(C)C` [Example 26, N′-[2-Ethyl-5-(5-methoxyindole-1-sulfonyl)phenyl]-N,N-dimethyl ethane-1,2-diamine], 76%.
Regarding `COc1ccc(S(=O)(=O)n2cc(C)c3ccccc32)cc1NCCCN(C)C` [Example 31, N′-[2-Methoxy-5-(3-methylindole-1-sulfonyl)phenyl]-N,N-dimethyl propane-1,3-diamine], the “NORT Discriminative Index” value with Male Wister rats (10 mg/kg) was 0.54 (0.48). Moreover, the “NORT Discriminative Index” value with Male Wister rats (30 mg/kg) is reported as 0.52 (0.52). Further, the “NORT Inference” value with Male Wister rats was “Active”. Also, in data set [1] (Intravenous), the AUC(0-t) is 3480 ± 650 ng·h/mL, the highest level (Cmax) was 1730 ± 682 ng/mL, the Tmax came out at 4.8 min and the half-life was 163 ± 24 min. The molecule also returned a bioavailability in data set [1] of 19 ± 7%. Further, in data set [1] (Oral), the AUC(0-t) is 674 ± 320 ng·h/mL, the peak level (Cmax) was 140 ± 76.8 ng/mL, the time of peak concentration (Tmax) is 140 ± 91.8 min and the half-life is 304 ± 197 min. Also, the Ki on Human 5-HT6 receptor amounted to 2.92 nM. Besides, the Kp in data set [2] was found to be 3.48 ± 0.27. Also, in the data set with rats, the “Scopolamine Induced Reversal (active dose)” value is reported as “≧30 mg/kg, p.o”.
`COc1ccc(S(=O)(=O)n2cc(C)c3cc(F)ccc32)cc1NCCCN(C)C` [Example 33, N′-[2-Methoxy-5-(5-fluoro-3-methylindole-1-sulfonyl)phenyl]-N,N-dimethyl propane-1,3-diamine]: on Human 5-HT6 receptor, the Ki was 7.34 nM.
Still for that read-out and setting: the figure for `COc1ccc2c(c1)c(C)cn2S(=O)(=O)c1ccc(OC)c(NCCCN(C)C)c1` [Example 35, N′-[2-Methoxy-5-(5-methoxy-3-methylindole-1-sulfonyl)phenyl]-N,N-dimethyl propane-1,3-diamine] is 18.9 nM.
Turning to `CN(C)CCC=C1c2ccccc2CCc2ccccc21` [amitriptyline], the “Affinity for the 5-HT6 receptor” value in the data set with 5-HT6 receptor is recorded as “high affinity”.
With `CN1CCN2c3ccccc3Cc3ccccc3C2C1` (stereo not shown) [mianserin], the “Affinity for the 5-HT6 receptor” value in the data set on 5-HT6 receptor is given as “high affinity”.
